Reference: US4103011A, “Novel penicillin compounds and process for preparation thereof” (priority 1976, dated 1978)
Structures can show the parent of a compound that is named as a salt. Where two headings read alike, the source gives them in different places.

What was measured:
in vivo = conditions: mouse
[1] = system: Staphylococcus aureus No. 50774; test: In vitro antibacterial activity (MIC); type: cell-based; conditions: Staphylococcus aureus No. 50774; read-out: minimum inhibitory concentration (MIC)
Text: (§1) In vitro antibacterial activity against 20 strains of bacteria
(§2) The numerals in the table show minimum inhibitory concentrations (MIC)

Proteus mirabilis P-2381 = test: In vitro antibacterial activity (MIC); type: cell-based; conditions: Proteus mirabilis, P2381, read-out: minimum inhibitory concentration (MIC)
Text: as §1, §2

[2] = system: Pseudomonas aeruginosa No.12; test: In vitro antibacterial activity (MIC); type: cell-based; conditions: Pseudomonas aeruginosa, NO.12, read-out: minimum inhibitory concentration (MIC)
Text: as §1, §2

[3] = system: Serratia mercescens IFO 3736; test: In vitro antibacterial activity (MIC); type: cell-based; conditions: IFO3736; Serratia mercescens IFO 3736; read-out: minimum inhibitory concentration (MIC)
Text: as §1, §2

[4] = system: Salmonella enteritidis No. 1891; test: In vitro antibacterial activity (MIC); type: cell-based; conditions: Salmonella enterica; Salmonella enteritidis No. 1891; read-out: minimum inhibitory concentration (MIC)
Text: as §1, §2

Escherichia coli P-140a = test: In vitro antibacterial activity (MIC); type: cell-based
Text: as §1, §2

[5] = system: Corynebacterium pyogenes C-21; test: In vitro antibacterial activity (MIC); type: cell-based; conditions: Rhodococcus (subgen. Prescottella) equi, C21, read-out: minimum inhibitory concentration (MIC)
Text: as §1, §2

Shigella flexneri 2a = test: In vitro antibacterial activity (MIC); type: cell-based; conditions: read-out: minimum inhibitory concentration (MIC)
Text: as §1, §2

Escherichia coli P-5101 = test: In vivo efficacy against systemic infection; parameters: species or system male mice (ddY); conditions: P5101, in Mus musculus, 168 h, twice, about 5 minutes and 6 hours after infection, read-out: ED50 (median effective dose)
In short: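 Male ddY mice of about 20g were infected intraperitoneally with E. coli P-5101 suspended in tryptosoy broth. Compounds dissolved in deionized water were given twice, about 5 minutes and 6 hours after infection. Effective dose was calculated by the Behrens-Kaerber method.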

CC1(C)S[C@@H]2[C@H](NC(=O)[C@H](NC(=O)c3c[nH]c4nc(N5CCN(C=O)CC5)ncc4c3=O)c3ccc(O)cc3)C(=O)N2[C@H]1C(=O)O [Compound 1, D-α-[5,8-Dihydro-2-(4-formyl-1-piperazinyl)-5-oxopyrido[2,3-d]pyrimidine-6-carboxamido]-p-hydroxybenzyl-penicillin sodium salt]
chemotherapeutic index relative to compounds B, D, E, F, G and J (times as high) (mice; Pseudomonas aeruginosa): 3 to 100 times | LD50 relative to compounds A to G (times as high) (mice; mice): 2 to 10 times | LD50 at 168 h (in vivo; iv): 4520 mg/kg | selectivity ratio (in vivo; iv): 1100 | LD50 at 168 h (in vivo; sc): > 6000 mg/kg | selectivity ratio (in vivo; sc): > 3000 | MIC [1]: 1.56 µg/mL | MIC (Proteus mirabilis P-2381): 3.13 µg/mL | MIC [2]: 3.13 µg/mL | MIC [3]: 6.25 µg/mL | MIC [4]: 0.78 µg/mL | minimum inhibitory concentration (MIC) (Escherichia coli P-140a): 12.5 µg/mL | MIC [5]: 3.13 µg/mL | MIC (Shigella flexneri 2a): 3.13 µg/mL | ED50 (Escherichia coli P-5101; iv): 2.9 mg/kg | ED50 (Escherichia coli P-5101; sc): 3.7 mg/kg
